Source: ChEMBL document CHEMBL1201862, “PubChem BioAssay data set” (2004)
Active and inactive are the calls of the source.

Columns and labels:
[1] = off-target signal loss in HeLa-CEM21 co-culture – HeLa F-luc CTL cells, cherry-picked, counter-screen for HIV-1 Env fusion inhibitor project, dose response (AID 652040); format: functional, cell-based;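 further: potency for signal decrease marking cytotoxic or nonspecific inhibition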
[2] = inhibitors of clade B AD8 Env fusion, dose response, cell-based, cherry-pick (AID 652062); format: functional;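 further: luciferase signal from cell-cell fusion driven by HIV-1 clade B AD8 Env; potency is for inhibitors of fusion seen as a drop in luminescence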
[3] = CEM21 lymphoblast cell cytotoxicity, dose response, cytotoxicity control for viral fusion inhibitor project, CellTiter-Glo luminescence, cherry-picked (AID 652042); format: functional, cell-based;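 further: potency for signal decrease meaning cytotoxicity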
[4] = inhibitors of HIV Env-driven cell fusion, dose response, cherry-pick (AID 652057); format: functional, cell-based
[5] = ZM109 Env clade C HIV-1 fusion inhibitors, dose response, HeLa effector, CEM target cells, luciferase, cherry-pick (AID 652058); format: functional, cell-based
[6] = molecular target: T1, Probable nicotinate-nucleotide adenylyltransferase (Staphylococcus aureus (strain N315), UniProt P65502); format: functional, Staphylococcus aureus subsp. aureus N315;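 on IC50 Mean: confirmatory dose-response retesting of NadD inhibitor hits first found in an ultra-high-throughput screen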
[7] = molecular target: T1, Probable nicotinate-nucleotide adenylyltransferase; format: functional, Staphylococcus aureus subsp. aureus N315; details: read-out: IC50_Mean
[8] = molecular target: T2, Voltage-gated N-type calcium channel alpha-1B subunit/Amyloid beta A4 precursor protein-binding family A member 1 (Homo sapiens, UniProt Q00975+Q02410); format: protein assay
[9] = molecular target: T3, Carboxy-terminal domain RNA polymerase II polypeptide A small phosphatase 1 (Homo sapiens, UniProt Q9GZU7); test: inhibitors of CTDSP1, concentration-response testing, biochemical assay, absorbance-based, actives from ultra-high-throughput screening (AID 540297); format: functional
T3 sequence (Q9GZU7 whole entry): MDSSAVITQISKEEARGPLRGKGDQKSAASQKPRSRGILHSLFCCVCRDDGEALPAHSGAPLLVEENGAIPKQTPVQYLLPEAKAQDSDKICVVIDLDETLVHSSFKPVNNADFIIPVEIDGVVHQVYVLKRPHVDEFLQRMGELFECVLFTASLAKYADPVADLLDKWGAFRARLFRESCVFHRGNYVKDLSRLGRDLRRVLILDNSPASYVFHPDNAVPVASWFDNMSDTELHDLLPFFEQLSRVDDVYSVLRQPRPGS

[10] = molecular target: T4, Low molecular weight phosphotyrosine protein phosphatase (Homo sapiens, UniProt P24666); format: functional; details: read-out: IC50_Mean
T4 sequence (P24666 whole entry): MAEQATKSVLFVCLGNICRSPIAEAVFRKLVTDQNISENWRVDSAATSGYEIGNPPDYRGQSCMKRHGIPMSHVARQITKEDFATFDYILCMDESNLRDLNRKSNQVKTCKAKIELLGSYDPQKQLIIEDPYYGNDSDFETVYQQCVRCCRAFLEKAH

[11] = molecular target: T2, Voltage-gated N-type calcium channel alpha-1B subunit/Amyloid beta A4 precursor protein-binding family A member 1; format: protein assay; remark: listed apart in the source
HEK293 [12] = test: inhibitors of LMP1-driven NF-kB reporter, dose response, cell-based, HEK293, luciferase, cherry-pick (AID 588343); format: functional; details: Homo sapiens
[13] = molecular target: Fructose-bisphosphate aldolase (Mycobacterium tuberculosis, UniProt P9WQA3); test: Fluorescence-based biochemical high throughput dose response assay for inhibitors of the fructose-bisphosphate aldolase (FBA) of M. tuberculosis.; format: functional
[14] = HeLa cell cytotoxicity, dose response, cytotoxicity control for MgcRacGAP inhibitor project (AID 624300); format: functional
[15] = Fluorescence-based cell-based high throughput dose response assay for inhibitors of the interaction of nucleotide-binding oligomerization domain containing 2 (NOD2) and the receptor-interacting serine-threonine kinase 2 (RIPK2).; format: functional; details: Homo sapiens
[16] = molecular target: T5, Rac GTPase-activating protein 1 (Homo sapiens, UniProt Q9H0H5); test: MgcRacGAP GTPase-activating activity inhibitors, confirmation, biochemical, ADP Hunter fluorescence, primary and confirmatory (AID 624330); format: functional
T5 sequence (Q9H0H5 whole entry): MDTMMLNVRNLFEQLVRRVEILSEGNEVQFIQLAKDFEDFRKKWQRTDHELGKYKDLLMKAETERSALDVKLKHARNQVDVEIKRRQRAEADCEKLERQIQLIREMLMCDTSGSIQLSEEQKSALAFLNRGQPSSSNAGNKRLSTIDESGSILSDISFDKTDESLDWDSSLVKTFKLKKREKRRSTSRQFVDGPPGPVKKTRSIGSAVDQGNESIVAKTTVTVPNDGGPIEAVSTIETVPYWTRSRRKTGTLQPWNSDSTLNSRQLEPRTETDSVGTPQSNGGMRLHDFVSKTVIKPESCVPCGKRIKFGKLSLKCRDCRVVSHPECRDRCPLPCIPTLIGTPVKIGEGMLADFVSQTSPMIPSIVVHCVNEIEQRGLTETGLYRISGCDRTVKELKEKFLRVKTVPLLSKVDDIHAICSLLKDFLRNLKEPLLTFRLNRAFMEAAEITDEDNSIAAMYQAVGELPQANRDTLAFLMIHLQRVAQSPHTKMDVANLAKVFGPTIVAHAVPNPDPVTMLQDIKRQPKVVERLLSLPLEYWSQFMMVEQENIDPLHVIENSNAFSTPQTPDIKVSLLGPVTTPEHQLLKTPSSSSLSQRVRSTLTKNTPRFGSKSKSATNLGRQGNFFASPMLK

[17] = molecular target: Induced myeloid leukemia cell differentiation protein Mcl-1 (Homo sapiens, UniProt Q07820); format: functional
cells = format: functional, cell-based
[18] = molecular target: Photoreceptor-specific nuclear receptor (Homo sapiens, UniProt Q9Y5X4); format: functional, cell-based;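 further: CHO-S cells with Gal4-NCOR and VP16-NR2E3 two-hybrid luciferase reporter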
[19] = molecular target: T6, Nuclear receptor subfamily 0 group B member 1 (Homo sapiens, UniProt P51843); format: functional, cell-based;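 further: HEK293T cells transfected with SF-1 and DAX-1 plus StAR promoter luciferase reporter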
T6 sequence (P51843 whole entry): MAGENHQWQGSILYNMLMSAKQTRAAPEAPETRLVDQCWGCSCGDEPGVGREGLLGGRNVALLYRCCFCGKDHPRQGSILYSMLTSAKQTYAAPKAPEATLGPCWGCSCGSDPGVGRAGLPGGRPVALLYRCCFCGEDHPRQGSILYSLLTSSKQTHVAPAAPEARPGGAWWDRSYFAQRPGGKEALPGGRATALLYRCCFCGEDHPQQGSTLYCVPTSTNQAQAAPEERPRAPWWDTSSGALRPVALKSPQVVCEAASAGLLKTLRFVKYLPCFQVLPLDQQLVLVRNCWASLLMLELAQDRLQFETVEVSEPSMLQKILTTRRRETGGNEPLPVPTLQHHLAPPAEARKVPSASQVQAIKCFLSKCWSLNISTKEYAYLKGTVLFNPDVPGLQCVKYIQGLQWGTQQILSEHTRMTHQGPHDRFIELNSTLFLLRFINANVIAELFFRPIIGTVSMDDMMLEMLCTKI

[20] = NIH-3T3 fibroblast cytotoxicity, dose response, cytotoxicity control, cell-based, fluorescence, Alamar Blue, secondary assay (AID 2327); format: functional;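 further: NIH-3T3 mouse fibroblasts cultured with fluconazole at 8 µg/mL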
HEK293 [21] = test: cells; details: Homo sapiens
[22] = inhibitors of intracellular T. cruzi replication, confirmation, NIH3T3 host cells, beta-gal luminescence (AID 2044); format: functional, cell-based;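 further: intracellular parasites grown in NIH/3T3 mouse fibroblasts as host cells; luminescent beta-galactosidase reporter signal from transgenic T. cruzi replicating inside host cells; inhibitors lower the luminescence signal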
[23] = cytotoxicity toward NIH3T3 fibroblasts, dose response, counter-screen, cell-based, ATP luminescence, mouse fibroblasts (AID 2010); format: functional;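 further: cells exposed to compound for about 90 hours before reading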
[24] = C. albicans growth with fluconazole, confirmation, fluorescence, retest (AID 2467); format: functional, cell-based
HEK293 [25] = test: cells; details: Homo sapiens; remark: listed apart in the source

T1 sequence (P65502 whole entry): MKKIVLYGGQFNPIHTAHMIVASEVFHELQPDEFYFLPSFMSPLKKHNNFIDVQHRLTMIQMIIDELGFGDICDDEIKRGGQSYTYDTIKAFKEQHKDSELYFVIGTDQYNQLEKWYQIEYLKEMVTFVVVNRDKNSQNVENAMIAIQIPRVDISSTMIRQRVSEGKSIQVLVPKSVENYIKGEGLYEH
T2 sequence (Q00975 whole entry, the tested form may be a part): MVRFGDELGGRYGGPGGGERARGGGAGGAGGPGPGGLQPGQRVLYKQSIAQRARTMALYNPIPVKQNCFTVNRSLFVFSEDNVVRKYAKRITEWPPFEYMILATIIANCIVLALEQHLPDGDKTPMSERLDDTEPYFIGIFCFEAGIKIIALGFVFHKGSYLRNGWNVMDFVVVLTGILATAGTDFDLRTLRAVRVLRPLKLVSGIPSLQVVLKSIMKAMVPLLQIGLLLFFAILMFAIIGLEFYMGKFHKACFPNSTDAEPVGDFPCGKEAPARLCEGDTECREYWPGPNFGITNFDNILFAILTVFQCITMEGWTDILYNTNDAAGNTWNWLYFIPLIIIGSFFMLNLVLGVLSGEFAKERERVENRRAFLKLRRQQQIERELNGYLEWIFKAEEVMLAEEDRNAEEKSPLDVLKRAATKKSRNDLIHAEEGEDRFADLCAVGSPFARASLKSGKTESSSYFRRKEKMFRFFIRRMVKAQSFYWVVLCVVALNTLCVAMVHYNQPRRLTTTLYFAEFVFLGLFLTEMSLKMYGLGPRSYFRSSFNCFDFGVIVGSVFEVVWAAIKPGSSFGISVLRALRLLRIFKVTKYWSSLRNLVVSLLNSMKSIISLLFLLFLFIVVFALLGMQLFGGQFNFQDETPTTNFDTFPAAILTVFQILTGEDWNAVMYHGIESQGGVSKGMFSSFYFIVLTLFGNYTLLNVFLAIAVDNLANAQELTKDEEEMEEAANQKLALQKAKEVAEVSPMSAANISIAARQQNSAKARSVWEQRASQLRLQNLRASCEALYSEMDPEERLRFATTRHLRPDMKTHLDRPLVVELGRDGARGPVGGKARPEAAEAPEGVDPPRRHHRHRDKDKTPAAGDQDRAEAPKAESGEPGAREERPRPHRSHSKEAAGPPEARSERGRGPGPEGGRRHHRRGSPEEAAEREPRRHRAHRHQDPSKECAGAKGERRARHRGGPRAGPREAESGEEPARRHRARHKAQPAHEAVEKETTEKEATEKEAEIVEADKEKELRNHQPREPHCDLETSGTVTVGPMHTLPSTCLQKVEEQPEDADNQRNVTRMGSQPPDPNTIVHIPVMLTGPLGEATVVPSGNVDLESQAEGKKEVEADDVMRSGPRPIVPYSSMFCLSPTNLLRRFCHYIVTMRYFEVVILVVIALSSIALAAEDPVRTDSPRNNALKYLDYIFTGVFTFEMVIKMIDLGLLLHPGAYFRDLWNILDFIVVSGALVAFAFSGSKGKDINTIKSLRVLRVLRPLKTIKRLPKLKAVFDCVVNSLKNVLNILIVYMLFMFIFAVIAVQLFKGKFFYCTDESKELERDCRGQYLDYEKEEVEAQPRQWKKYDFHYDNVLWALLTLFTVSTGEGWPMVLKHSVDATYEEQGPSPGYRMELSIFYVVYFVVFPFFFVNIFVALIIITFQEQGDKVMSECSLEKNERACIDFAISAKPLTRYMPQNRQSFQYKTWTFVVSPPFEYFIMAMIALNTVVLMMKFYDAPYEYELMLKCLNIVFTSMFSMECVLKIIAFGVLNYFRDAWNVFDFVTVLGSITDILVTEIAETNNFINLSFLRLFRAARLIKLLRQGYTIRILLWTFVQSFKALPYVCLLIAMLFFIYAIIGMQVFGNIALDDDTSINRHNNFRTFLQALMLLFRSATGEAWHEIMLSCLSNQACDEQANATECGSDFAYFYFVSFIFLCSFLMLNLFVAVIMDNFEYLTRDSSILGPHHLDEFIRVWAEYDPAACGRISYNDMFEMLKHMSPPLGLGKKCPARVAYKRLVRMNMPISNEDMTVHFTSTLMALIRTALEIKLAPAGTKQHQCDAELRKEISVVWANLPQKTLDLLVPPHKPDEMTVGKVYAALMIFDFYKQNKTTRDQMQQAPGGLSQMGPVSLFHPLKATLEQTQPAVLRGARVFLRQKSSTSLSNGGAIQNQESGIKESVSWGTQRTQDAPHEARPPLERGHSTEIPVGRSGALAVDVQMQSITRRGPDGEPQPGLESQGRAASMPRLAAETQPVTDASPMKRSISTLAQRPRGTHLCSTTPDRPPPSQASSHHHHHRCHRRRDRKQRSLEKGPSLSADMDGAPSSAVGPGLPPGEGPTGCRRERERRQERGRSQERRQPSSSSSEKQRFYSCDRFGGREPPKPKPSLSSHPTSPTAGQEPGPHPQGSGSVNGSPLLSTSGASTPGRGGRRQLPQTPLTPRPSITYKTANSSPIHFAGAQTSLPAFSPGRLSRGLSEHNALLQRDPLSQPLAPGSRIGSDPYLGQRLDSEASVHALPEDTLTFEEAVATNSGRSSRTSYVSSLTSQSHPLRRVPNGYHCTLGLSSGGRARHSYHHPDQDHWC
T2 sequence (Q02410 whole entry, the tested form may be a part): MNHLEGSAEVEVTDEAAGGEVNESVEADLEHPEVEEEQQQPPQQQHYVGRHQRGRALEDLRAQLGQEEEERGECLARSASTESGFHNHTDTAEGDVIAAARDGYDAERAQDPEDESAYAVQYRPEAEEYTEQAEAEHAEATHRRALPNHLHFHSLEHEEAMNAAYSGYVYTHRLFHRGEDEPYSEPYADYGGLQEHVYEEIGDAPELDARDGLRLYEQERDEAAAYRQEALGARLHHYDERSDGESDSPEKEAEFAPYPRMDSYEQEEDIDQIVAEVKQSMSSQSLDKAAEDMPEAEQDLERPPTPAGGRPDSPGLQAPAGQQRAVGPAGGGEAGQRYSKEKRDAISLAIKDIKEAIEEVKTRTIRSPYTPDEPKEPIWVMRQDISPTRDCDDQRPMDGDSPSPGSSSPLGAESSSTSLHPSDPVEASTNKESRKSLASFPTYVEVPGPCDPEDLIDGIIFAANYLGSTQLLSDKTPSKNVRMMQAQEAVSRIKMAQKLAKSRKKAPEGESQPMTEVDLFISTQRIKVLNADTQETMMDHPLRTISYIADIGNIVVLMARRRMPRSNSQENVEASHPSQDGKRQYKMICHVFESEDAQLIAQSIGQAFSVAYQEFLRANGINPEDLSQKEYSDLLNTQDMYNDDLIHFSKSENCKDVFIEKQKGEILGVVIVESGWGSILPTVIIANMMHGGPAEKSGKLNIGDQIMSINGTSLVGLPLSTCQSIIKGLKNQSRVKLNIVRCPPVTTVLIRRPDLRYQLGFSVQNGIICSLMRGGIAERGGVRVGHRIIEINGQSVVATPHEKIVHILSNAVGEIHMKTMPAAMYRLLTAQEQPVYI
Chain of Fructose-bisphosphate aldolase (P9WQA3 whole entry): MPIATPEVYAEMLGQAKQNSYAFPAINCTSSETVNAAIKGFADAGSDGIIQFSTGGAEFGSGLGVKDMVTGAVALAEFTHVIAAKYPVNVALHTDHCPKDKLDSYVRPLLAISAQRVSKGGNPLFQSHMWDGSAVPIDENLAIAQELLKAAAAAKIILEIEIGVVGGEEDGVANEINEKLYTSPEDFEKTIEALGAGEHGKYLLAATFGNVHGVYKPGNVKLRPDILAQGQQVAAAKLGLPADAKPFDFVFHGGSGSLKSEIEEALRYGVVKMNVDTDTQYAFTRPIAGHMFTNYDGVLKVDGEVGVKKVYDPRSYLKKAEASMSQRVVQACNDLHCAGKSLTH
Chain of Photoreceptor-specific nuclear receptor (Q9Y5X4 whole entry, the tested form may be a part): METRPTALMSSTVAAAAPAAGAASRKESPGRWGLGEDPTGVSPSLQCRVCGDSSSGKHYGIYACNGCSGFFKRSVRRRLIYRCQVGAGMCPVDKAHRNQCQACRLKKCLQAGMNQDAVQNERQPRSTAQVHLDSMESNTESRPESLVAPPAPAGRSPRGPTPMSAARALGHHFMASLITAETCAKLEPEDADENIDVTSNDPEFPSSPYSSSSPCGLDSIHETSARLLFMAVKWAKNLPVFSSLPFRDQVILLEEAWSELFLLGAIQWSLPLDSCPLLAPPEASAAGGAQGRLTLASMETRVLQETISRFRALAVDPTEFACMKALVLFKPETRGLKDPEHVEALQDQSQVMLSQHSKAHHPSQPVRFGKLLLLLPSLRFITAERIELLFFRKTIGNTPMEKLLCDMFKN
Chain of Induced myeloid leukemia cell differentiation protein Mcl-1 (Q07820 whole entry): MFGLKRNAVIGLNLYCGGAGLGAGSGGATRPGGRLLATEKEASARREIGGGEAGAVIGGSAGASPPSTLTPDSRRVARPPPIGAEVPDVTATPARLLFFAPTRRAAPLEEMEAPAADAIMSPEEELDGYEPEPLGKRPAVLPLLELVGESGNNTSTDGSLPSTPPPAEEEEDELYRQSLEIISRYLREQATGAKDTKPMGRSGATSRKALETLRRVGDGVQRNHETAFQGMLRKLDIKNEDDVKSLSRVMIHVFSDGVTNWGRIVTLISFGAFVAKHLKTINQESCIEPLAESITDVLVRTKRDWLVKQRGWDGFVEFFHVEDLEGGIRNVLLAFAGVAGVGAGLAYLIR

With `Cn1c(NCc2c(O)ccc3ccccc23)nc2ccccc21` the AC50 [1] was 40.6 µM (active), the AC50 [2] was 28.9 µM (active) and the AC50 [3] was 58.1 µM (active). For the same molecule, the AC50 [4] was 15.4 µM (active) and the AC50 [5] was 22.1 µM (active).

With `Cc1ccccc1C(=O)Nc1cc[n+](-c2nc3ccccc3nc2[N-]S(=O)(=O)c2ccc(F)cc2)cc1` the IC50 [6] was 5.96 µM (active) and the IC50 [7] was 23.8 µM (active).

In the case of `COc1ccc2cc3c(N)nn(C(=O)c4cccc([N+](=O)[O-])c4)c3nc2c1`, the IC50 [8] is reported as 12.2 µM (active), the IC50 [9] is reported as 4.35 µM (active) and the IC50 [10] is reported as 19.1 µM (active). The IC50 [11] was > 50 µM (inactive) and the AC50 (HEK293 [12]) was 3.08 µM (active).

For `Cc1ccc(-n2nc3ccc(N)cc3n2)cc1C`, the IC50 [13] was 0.895 µM (active).

In the case of `CN(C)CCC(=O)N1C/C(=C/c2ccccc2)C(=O)/C(=C\c2ccccc2)C1`, the CC50 [14] is reported as 25 µM (active), the IC50 [15] is reported as 3.78 µM (active) and the IC50 [16] is reported as 167 µM (active).

With `Cn1c(/C=N/n2cnnc2)nc2ccccc21` the IC50 [13] was 1.54 µM (active).

In the case of `C/C(=N\NC(=O)c1cccc(N/N=C(\C)c2ccco2)c1)c1ccco1`, the IC50 [9] is reported as 3.17 µM (active), the IC50 [17] is reported as 3.19 µM (active) and the IC50 [6] is reported as 10.6 µM (active). The IC50 [7] was 14.8 µM (active).

With `COc1cc2c(O)c3c(c(-c4ccc5c(c4)OCO5)c2cc1OC)C(=O)OC3` [DIPHYLLIN] the IC50 (cells) was > 67.6 µM (inactive), the IC50 [18] was 0.962 µM (active) and the IC50 [19] was > 67.6 µM (inactive). For the same molecule, the EC50 [20] was 33.5 µM (active), the EC50 (HEK293 [21]) was > 59.7 µM (inactive) and the EC50 [22] was 1.65 µM (active). The EC50 [23] was > 30 µM (not active), the EC50 [24] was 2.59 µM (active) and the EC50 (HEK293 [25]) was > 59.7 µM (inactive).
